From patent US12692264B2, “Pyrimidine or pyridine derivative, preparation method therefor, and application thereof in pharmacy” (ABBISKO THERAPEUTICS CO., LTD., priority 2021, dated 2026)

What was measured:
Format in all cases: cell-based
[1] = target: Ba/F3 EGFR-D770-N771ins_SVD (Homo sapiens, UniProt P00533, DUP768-770, cells depend on it); test: Cell proliferation study (CellTiter-Glo, 72 hrs), Ba/F3 EGFR-D770-N771ins_SVD; settings: CTG, * = average of multiple measurements, read-out: Ba/F3 EGFR-D770-N771ins_SVD IC50
Chain of Ba/F3 EGFR-D770-N771ins_SVD (P00533 with tags, fused parts or gaps DUP768-770): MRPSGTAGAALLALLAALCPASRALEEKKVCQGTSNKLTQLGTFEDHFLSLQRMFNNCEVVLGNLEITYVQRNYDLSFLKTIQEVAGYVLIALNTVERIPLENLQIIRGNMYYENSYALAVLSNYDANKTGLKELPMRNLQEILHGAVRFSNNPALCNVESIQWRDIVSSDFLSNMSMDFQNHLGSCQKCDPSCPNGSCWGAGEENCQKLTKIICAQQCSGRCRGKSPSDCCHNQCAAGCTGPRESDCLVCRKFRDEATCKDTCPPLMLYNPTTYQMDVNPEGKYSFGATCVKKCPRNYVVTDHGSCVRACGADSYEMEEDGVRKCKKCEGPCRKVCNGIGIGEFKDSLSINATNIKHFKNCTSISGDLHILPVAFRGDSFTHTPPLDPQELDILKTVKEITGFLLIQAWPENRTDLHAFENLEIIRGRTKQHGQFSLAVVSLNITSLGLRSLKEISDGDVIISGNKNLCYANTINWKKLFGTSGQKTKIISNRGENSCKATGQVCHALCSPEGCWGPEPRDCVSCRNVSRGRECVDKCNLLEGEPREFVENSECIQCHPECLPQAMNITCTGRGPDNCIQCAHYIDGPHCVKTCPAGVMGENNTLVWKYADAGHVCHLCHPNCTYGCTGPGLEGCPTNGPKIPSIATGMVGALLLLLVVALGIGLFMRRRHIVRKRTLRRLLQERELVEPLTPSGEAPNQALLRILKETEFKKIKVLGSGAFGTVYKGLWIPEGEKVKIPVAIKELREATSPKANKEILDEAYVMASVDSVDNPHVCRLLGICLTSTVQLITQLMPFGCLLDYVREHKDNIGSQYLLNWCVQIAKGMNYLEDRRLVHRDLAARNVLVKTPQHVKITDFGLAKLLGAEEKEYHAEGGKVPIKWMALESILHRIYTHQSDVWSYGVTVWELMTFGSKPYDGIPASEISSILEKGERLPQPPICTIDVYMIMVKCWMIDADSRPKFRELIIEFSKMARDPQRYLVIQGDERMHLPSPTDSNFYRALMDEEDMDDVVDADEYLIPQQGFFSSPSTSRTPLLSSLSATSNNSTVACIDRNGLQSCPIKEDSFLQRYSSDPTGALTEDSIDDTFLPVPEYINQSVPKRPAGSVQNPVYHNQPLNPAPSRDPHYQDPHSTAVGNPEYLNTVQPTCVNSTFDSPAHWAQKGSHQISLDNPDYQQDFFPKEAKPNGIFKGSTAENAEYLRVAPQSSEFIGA
In short: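 Cells were seeded overnight, then exposed for 72 hrs at 37 °C, 5% CO2 to 9 concentrations in 3.16-fold steps, 0.1% DMSO final, triplicate wells. Viability was read by CellTiter-Glo luminescence, with a T0 plate read at dosing. IC50 came from nonlinear sigmoidal dose-response fits.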

A431 (EGFR-WT) = test: Cell proliferation study (CellTiter-Glo, 72 hrs), A431; settings: Homo sapiens, A-431, A431 cells, CTG, * = average of multiple measurements
Description: (§1) (I) Reagents and Materials
(§2) • Fetal bovine serum FBS (GBICO, Cat #10099-141); • CellTiter-Glo® luminescent cell viability assay kit (Promega, Cat #G7572); • Black transparent flat-bottom 96-well plate (Corning®, Cat #3603). (II) Instruments • SpectraMax multi-label microplate reader MD, 2104-0010A; • Carbon dioxide incubator, Thermo Scientific 3100 series; • Biological safety cabinet, Thermo Scientific, 1300 series model A2; • Inverted microscope, Olympus, CKX41SF; • Siemens refrigerator KK25E76T1. (III) Cell Lines and Culture Conditions
(§3) (IV) Experimental Procedures 1. Cell Culture and Inoculation: • (1) Cells in the logarithmic growth phase were harvested and counted using a […]. The cell viability was determined by the trypan blue dye exclusion method to ensure cell viability above 90%. • (2) The cell concentration was adjusted to reach a desired final density; 90 μL of cell suspension was added to a 96-well plate. • (3) The cells were incubated overnight in the 96-well plate at 37° C., 5% CO2 and with 95% humidity. 2. T0 Benchmark Data: • (1) 10 μL of PBS was added to each well of the TO plate containing the cells. • (2) The CTG reagent was thawed and the cell plate was equilibrated to room temperature for 30 min. • (3) An equal volume of CTG solution was added to each well. • (4) The cells were lysed by shaking on an orbital shaker for 5 min. • (5) The cell plate was left to stand at room temperature for 20 min to stabilize the fluorescence signal. • (6) The fluorescence signal values of TO were read. 3. Dilution and Addition of Compounds • (1) According to the compound information table, a corresponding volume of DMSO was added to the corresponding compound powder to prepare a 10 mM stock solution. • (2) A 1000-fold, 3.16-fold-diluted compound solution was prepared. • (3) The 1000× diluted compound solution was diluted 100-fold with PBS to prepare a 10-fold compound solution with a maximum concentration of 10 μM, including 9 concentrations, with 3.16-fold dilution, and 10 μL of the medicament solution was added to each well of the 96-well plate to seed the cells. Triplicate wells were set for each compound concentration, with a final concentration of DMSO being 0.1%. • (4) The cells were placed in the 96-well plate containing the medicament at 37° C., 5% CO2 and with 95% humidity, and cultured for 72 hrs before CTG analysis. 4. Fluorescence Signal Reading • (1) The CTG reagent was thawed and the cell plate was equilibrated to room temperature for 30 min. • (2) An equal volume of CTG solution was added to each well. • (3) The cells were lysed by shaking on an orbital shaker for 5 min. • (4) The cell plate was left to stand at room temperature for 20 min to stabilize the fluorescence signal. • (5) The fluorescence values were read. 5. Data Processing
(§4) Data were analyzed using GraphPad Prism 7.0 software and fitted data were regressed using non-linear S-curves to obtain dose-response curves from which IC50 values (in nM) were calculated.

[2] = target: Ba/F3 EGFR-V769_D770insASV (Homo sapiens, UniProt P00533, DUP767-769, cells depend on it); test: Cell proliferation study (CellTiter-Glo, 72 hrs), Ba/F3 EGFR-V769_D770insASV; settings: CTG, * = average of multiple measurements, read-out: Ba/F3 EGFR-V769_D770insASV IC50
Chain of Ba/F3 EGFR-V769_D770insASV (P00533 with tags, fused parts or gaps DUP767-769): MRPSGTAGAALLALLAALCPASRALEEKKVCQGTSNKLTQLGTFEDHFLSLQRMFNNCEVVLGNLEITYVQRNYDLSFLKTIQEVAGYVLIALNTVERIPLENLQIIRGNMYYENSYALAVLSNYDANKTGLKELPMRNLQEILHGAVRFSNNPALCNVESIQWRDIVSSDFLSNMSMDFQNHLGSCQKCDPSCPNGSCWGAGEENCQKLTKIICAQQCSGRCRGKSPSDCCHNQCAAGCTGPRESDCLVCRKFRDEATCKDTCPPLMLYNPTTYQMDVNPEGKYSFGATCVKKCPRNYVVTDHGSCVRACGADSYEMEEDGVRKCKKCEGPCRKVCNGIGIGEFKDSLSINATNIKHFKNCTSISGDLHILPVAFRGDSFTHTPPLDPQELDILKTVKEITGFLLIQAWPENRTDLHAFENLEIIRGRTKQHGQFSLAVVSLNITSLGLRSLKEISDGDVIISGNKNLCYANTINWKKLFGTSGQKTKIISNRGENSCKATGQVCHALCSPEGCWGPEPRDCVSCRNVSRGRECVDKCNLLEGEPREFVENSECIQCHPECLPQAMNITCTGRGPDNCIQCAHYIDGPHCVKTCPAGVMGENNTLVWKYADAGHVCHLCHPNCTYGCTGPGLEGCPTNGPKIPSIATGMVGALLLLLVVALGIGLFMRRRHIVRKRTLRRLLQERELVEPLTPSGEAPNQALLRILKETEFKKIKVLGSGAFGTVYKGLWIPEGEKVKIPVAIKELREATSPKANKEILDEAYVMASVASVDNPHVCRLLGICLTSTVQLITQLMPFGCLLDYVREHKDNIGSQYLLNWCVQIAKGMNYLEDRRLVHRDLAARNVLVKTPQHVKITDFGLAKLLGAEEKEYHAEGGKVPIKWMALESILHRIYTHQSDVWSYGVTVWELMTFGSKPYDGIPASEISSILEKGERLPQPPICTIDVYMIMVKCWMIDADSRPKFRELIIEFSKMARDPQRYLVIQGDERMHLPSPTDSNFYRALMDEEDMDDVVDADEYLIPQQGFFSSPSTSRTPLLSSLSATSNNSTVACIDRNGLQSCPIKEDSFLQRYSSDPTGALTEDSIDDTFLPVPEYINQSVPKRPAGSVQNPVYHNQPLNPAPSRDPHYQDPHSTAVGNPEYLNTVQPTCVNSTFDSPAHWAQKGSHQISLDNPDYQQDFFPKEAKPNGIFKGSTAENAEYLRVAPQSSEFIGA
Description: as §1, §2, §3, §4

Row | Structure (SMILES) | GI50 [1] [nM] | IC50 (A431 (EGFR-WT)) [nM] | GI50 [2] [nM]
1 | C=CC(=O)Nc1cc(Nc2ncc(C(=O)OC(C)C)c(N3CC(C)(C)c4nc(C)ccc43)n2)c(OC)nc1N1C[C@@H](F)C[C@@H]1CN(C)C [Example 59, isopropyl 2-((5-acrylamido-6-((2R,4S)-2-((dimethylamino)methyl)-4-fluoro-pyrrolidin-1-yl)-2-methoxypyridin-3-yl)amino)-4-(3,3,5-trimethyl-2,3-dihydro-1H-pyrrolo[3,2-b]pyridin-1-yl)pyrimidine-5-carboxylate] | 18.4 | 150 | 18.4
2 | C=CC(=O)Nc1cc(Nc2ncc(C(=O)OC(C)C)c(N3CC4(CC4)c4ncccc43)n2)c(OC)cc1N(C)CCN(C)C [Example 21, isopropyl 2-((5-acrylamido-4-((2-(dimethylami-no)ethyl)(methyl)amino)-2-methoxy-phenyl)amino)-4-(spiro(cyclopropane-1,3′-pyrrolo[3,2-b]pyridin)-1′(2′H)-yl)pyrimidine-5-carboxylate] | 24.6 | 404 | 56.8
3 | C=CC(=O)Nc1cc(Nc2ncc(C(=O)OC(C)C)c(N3CC(C)(C)c4nc(F)ccc43)n2)c(OC)cc1N(C)CCN(C)C [Example 11, isopropyl 2-((5-acrylamido-4-((2-(dimethylami-no)ethyl)(methyl)amino)-2-methoxy-phenyl)amino)-4-(5-fluoro-3,3-dimethyl-2,3-dihydro-1H-pyrrolo[3,2-b]pyridin-1-yl)pyrimidine-5-carboxylate] | 30.2 | 828 | 37.3
4 | C=CC(=O)Nc1cc(Nc2ncc(C(=O)OC(C)C)c(N3CC(C)(C)c4nc(C)ccc43)n2)c(OC)cc1N1CC(N(C)C)C1 [Example 40, isopropyl 2-((5-acrylamido-4-(3-(dimethylami-no)azetidin-1-yl)-2-methoxyphenyl)ami-no)-4-(3,3,5-trimethyl-2,3-dihydro-1H-pyrrolo[3,2-b]pyridin-1-yl)pyrimidine-5-carboxylate] | 33.9 | 295 | 44.2
5 | C=CC(=O)Nc1cc(Nc2ncc(C(=O)OC(C)C)c(N3CC4(CC4)c4nc(C)ccc43)n2)c(OC)cc1N(C)CCNC [Example 25, isopropyl 2-((5-acrylamido-2-methoxy-4-(methyl(2-(methylamino)ethyl)ami-no)phenyl)amino)-4-(5′-methyl-spiro(cyclopropane-1,3′-pyrrolo[3,2-b]pyridin)-1′(2′H)-yl)pyrimidine-5-carboxylate] | 34.2 | 222 | 53.8
6 | C=CC(=O)Nc1cc(Nc2ncc(C(=O)OC(C)C)c(N3CC(C)(C)c4cc(F)c(F)cc43)n2)c(OC)cc1N1CCC[C@@H]1CN(C)C [Example 92, isopropyl (R)-2-((5-acrylamido-4-(2-((dimethyl-amino)methyl)pyrrolidin-1-yl)-2-meth-oxyphenyl)amino)-4-(5,6-difluoro-3,3-dimethylindolin-1-yl)pyrimidine-5-carboxylate] | 33.2 | 962 | 27.9
7 | C=CC(=O)Nc1cc(Nc2ncc(C(=O)OC(C)C)c(N3CC4(CC4)c4nc(C)ccc43)n2)c(OC)cc1N(C)C[C@@H]1CCCN1C [Example 44, isopropyl (S)-2-((5-acrylamido-2-methoxy-4-(methyl((1-methylpyrrolidin-2-yl)methyl)amino)phenyl)amino)-4-(5′-methylspiro(cyclopropane-1,3′-pyrrolo[3,2-b]pyridin)-1′(2′H)-yl)pyrimidine-5-carboxylate] | 30.4 | 235 | 76.5

Compounds with a lower GI50 [1], results first:

Row | GI50 [1] [nM] | IC50 (A431 (EGFR-WT)) [nM] | GI50 [2] [nM] | Structure (SMILES)
8 | 15.4 | 20.9 | 9.2 | C=CC(=O)Nc1cc(Nc2ncc(C(=O)OC(C)C)c(N3CC(C)(C)c4ncccc43)n2)c(OC)cc1N1C[C@@H](F)C[C@@H]1CN(C)C [Example 88, isopropyl 2-((5-acrylamido-4-((2R,4S)-2-((di-methylamino)methyl)-4-fluoro-pyrrolidin-1-yl)-2-methoxy-phenyl)amino)-4-(3,3-dimethyl-2,3-dihydro-1H-pyrrolo[3,2-b]pyridin-1-yl)pyrimidine-5-carboxylate]
9 | 14.8 | 65.5 | 30.4 | [2H]C([2H])([2H])N(CCN(C)C)c1cc(OC)c(Nc2ncc(C(=O)OC(C)C)c(N3c4ccc(C)nc4C(C)(C)C3([2H])[2H])n2)cc1NC(=O)C=C [Example 71, isopropyl 2-((5-acrylamido-4-((2-(dimethylami-no)ethyl)(methyl-d3)amino)-2-methoxy-phenyl)amino)-4-(3,3,5-trimethyl-2,3-dihydro-1H-pyrrolo[3,2-b]pyridin-1-yl-2,2-d2)pyrimidine-5-carboxylate]
10 | 11.7 | 97.2 | 32.2 | [2H]C([2H])([2H])N(CCN(C([2H])([2H])[2H])C([2H])([2H])[2H])c1cc(OC)c(Nc2ncc(C(=O)OC(C)C)c(N3CC(C)(C)c4nc(C)ccc43)n2)cc1NC(=O)C=C [Example 77, isopropyl 2-((5-acrylamido-4-((2-(bis(methyl-d3)amino)ethyl)(methyl-d3)amino)-2-methoxyphenyl)amino)-4-(3,3,5-tri-methyl-2,3-dihydro-1H-pyrrolo[3,2-b]pyridin-1-yl)pyrimidine-5-carboxylate]
11 | 11.2 | 76 | 12.9 | [2H]C1([2H])N(c2nc(Nc3cc(NC(=O)C=C)c(N4C[C@@H](F)C[C@@H]4CN(C)C)cc3OC)ncc2C(=O)OC(C)C)c2ccc(C)nc2C1(C)C [Example 82, isopropyl 2-((5-acrylamido-4-((2R,4S)-2-((di-methylamino)methyl)-4-fluoro-pyrrolidin-1-yl)-2-methoxy-phenyl)amino)-4-(3,3,5-trimethyl-2,3-dihydro-1H-pyrrolo[3,2-b]pyridin-1-yl-2,2-d2)pyrimidine-5-carboxylate]
12 | 10.7 | 110 | 18.3 | C=CC(=O)Nc1cc(Nc2ncc(C(=O)OC(C)C)c(N3CC(C)(C)c4nc(C)ccc43)n2)c(OC)cc1N1C[C@@H](F)C[C@@H]1CN(C)C [Example 63, isopropyl 2-((5-acrylamido-4-((2R,4S)-2-((dimethylamino)methyl)-4-fluoro-pyrrolidin-1-yl)-2-methoxy-phenyl)amino)-4-(3,3,5-trimethyl-2,3-dihydro-1H-pyrrolo[3,2-b]pyridin-1-yl)pyrimidine-5-carboxylate]
13 | 9.8 | 14.1 | 8 | C=CC(=O)Nc1cc(Nc2ncc(C(=O)OC(C)C)c(N3CC4(CC4)c4ncccc43)n2)c(OC)cc1N1CCC[C@@H]1CN(C)C [Example 86, isopropyl (R)-2-((5-acrylamido-4-(2-((dimethyl-amino)methyl)pyrrolidin-1-yl)-2-meth-oxyphenyl)amino)-4-(spiro(cyclopro-pane-1,3′-pyrrolo[3,2-b]pyridin)-1′(2′H)-yl)pyrimidine-5-carboxylate]
14 | 8.8 | 39.7 | 12.3 | C=CC(=O)Nc1cc(Nc2ncc(C(=O)OC(C)C)c(N3CC4(CC4)c4nc(C)ccc43)n2)c(OC)cc1N1C[C@@H](F)C[C@@H]1CN(C)C [Example 64, isopropyl 2-((5-acrylamido-4-((2R,4S)-2-((di-methylamino)methyl)-4-fluoro-pyrrolidin-1-yl)-2-methoxy-phenyl)amino)-4-(5′-methyl-spiro(cyclopropane-1,3′-pyrrolo[3,2-b]pyridin)-1′(2′H)-yl)pyrimidine-5-carboxylate]
